{"source": "patent US10092620B2", "about": "“Uses of cyclic peptides for treating and preventing atherosclerosis” (THE SCRIPPS RESEARCH INSTITUTE, priority 2013, dated 2018)", "key": {"[1]": {"test_system": "mouse macrophage J774 cells", "assay": "cholesterol efflux from mouse macrophage cells incubated with peptide-treated human plasma", "type": "cell-based", "procedure": "Selected cyclic D,L-α-peptides were further evaluated for their ability to promote cellular cholesterol efflux from mouse macrophage J774 cells. A main factor for HDL anti-atherogenicity is its role in reverse cholesterol transport, of which cellular cholesterol efflux is a critical component. To measure efflux mediated by the cyclic D,L-α-peptides, cholesterol-laden cells were incubated with peptide-treated plasma for 4 h, after which the level of cholesterol effluxed to the media was measured as described in Sankaranarayanan et al., J. Lipid Res. 52, 2332-2340, 2011.\nPreparation of labeling medium: These procedures were modified from that reported in Sankaranarayanan et al., J. Lipid Res. 52, 2332-2340, 2011. The labeling medium was prepared by complexing the unlabeled cholesterol and BODIPY-cholesterol (20% of the total cholesterol) with methyl-β-cyclodextrin (CD) at a molar ratio of 1:40 (total cholesterol/CD). Unlabeled cholesterol and BODIPY-cholesterol were dissolved in chloroform and dried in a round bottom flask by rotor-evaporation in the dark to form a thin film. The cholesterol mixture was solubilized by adding 20 mM CD in MEM-HEPES buffer. The suspension was sonicated in a water bath (37° C.) for at 1 h, stirred at 37° C. for 3 h, filtered using a 0.45-μm syringe filter, and diluted with an equal volume of MEM-HEPES buffer containing 4 μg/mL Sandoz ACAT (acyl-CoA:cholesterol acyltransferase) inhibitor (Sigma). The final concentrations of BODIPY-cholesterol, unlabeled cholesterol, CD, and ACAT inhibitor in the labeling medium were 0.025 mM, 0.1 mM, 10 mM, and […], respectively.\nPreparation of efflux medium: Just before the initiation of the efflux assays, the human plasma frozen at −80° C. was thawed, and 80 μL of plasma was incubated with 20 μL of cyclic peptide stocks (peptide stocks were 1-3 mg/mL in 10% sucrose) or the vehicle (10% sucrose) at 37° C. for 30 min. The treated plasma samples (100 μL) were then incubated with 25% PEG 8000 solution in 200 mM glycine buffer, pH 8.5 (40 μL) to precipitate apoB-containing lipoproteins (Asztalos et al., J. Lipid Res. 46, 2246-2253, 2005). After a 15-min incubation, the precipitate was removed by high-speed centrifugation (13,000 rpm, 10 min, 4° C.), and the supernatant (60 μL) was immediately diluted with MEM-HEPES buffer (1.5 mL) to give ˜2% whole plasma. This solution, containing the peptide remodeled-HDL lipoprotein fraction as cholesterol acceptors, was used as the efflux medium.\nCholesterol efflux from mouse macrophage cells: Mouse macrophage J774A.1 cells (TIB-67; American Type Culture Collection, Manassas, Va.) were seeded in 12-well culture plate at 3×10^5 cells/mL and cultured to 80-90% confluency in DMEM with 10% FBS at 5% CO2. Cells were rinsed twice with MEM-HEPES, incubated for 1 h with 0.25 ml of labeling medium containing CD/BODIPY-cholesterol/unlabeled cholesterol and 2 μg/mL Sandoz ACAT inhibitor, followed by washing twice with MEM-HEPES. The cholesterol-laden cells were equilibrated for 18 h in DMEM containing 5% LPDS, […] Sandoz ACAT inhibitor, and 0.3 mM Cpt-cAMP. After equilibration, the cells were washed twice with MEM-HEPES and incubated with 0.25 mL of efflux media for 4 h. At the end of the incubation time, the efflux media was removed and centrifuged (1200 rpm, 10 min) to remove floating cells, and the fluorescence intensity of 100 μL cell-free media was recorded using a Tecan GENios plate reader (excitation 485 nm, emission 535 nm). The obtained signals were background subtracted using the signal from unlabeled cells. The cell monolayers were rinsed twice with ice-cold MEM-HEPES and solubilized with 0.25 mL 1% cholic acid by shaking on a plate shaker for at least 4 h at room temperature; then the fluorescence intensity of 100 μL cell lysate was recorded and background subtracted using the signal from unlabeled cell lysate. […]"}, "[2]": {"assay": "body, liver and spleen weights, food and water intake", "type": "in vivo, mouse", "conditions": "oral ~25 mg/kg/day, 10 weeks, LDLr-null mice", "procedure": "Body weight was measured weekly. Mice were weighed prior to fasting. Liver and spleen weights were determined at the end of treatment."}, "[3]": {"assay": "plasma liver enzyme activities (ALT, AST)", "type": "in vivo, mouse", "conditions": "oral ~25 mg/kg/day, 10 weeks, LDLr-null mice", "procedure": "Plasma liver enzyme activities: At the time of harvest (10 week), blood (˜0.5 mL) was collected after an overnight fast (14-16 h) by cardiac puncture into EDTA anti-coagulant coated tubes, and centrifuged at 4° C. for 10 min×5000 rpm. Plasma samples were stored at −80° C. until analysis. Plasma alanine aminotransferase (ALT) and aspartate aminotransferase (AST) concentrations were measured using Infinity ALT (GPT) and AST (GOT) liquid stable reagents, respectively, which is a colorimetric kinetic assay (Thermo Scientific). Assays were performed in accordance to the manufacturer's recommendations, adjusting the reagent volumes (20 μL plasma+200 μL reagent, 0.69-cm light pathlength of the solution in the well) for analysis of samples in 96-well flat bottom microplate format."}, "LDLr-null mice": {"test_system": "LDLr-null mice", "assay": "plasma lipoprotein and lipoprotein cholesterol profiles (FPLC of pooled plasma)", "type": "in vivo, mouse", "conditions": "2 weeks oral ~25 mg/kg/day", "procedure": "Effect of cyclic peptides on plasma lipoprotein and lipoprotein cholesterol profiles: Pooled plasma (240 μL total, 30 μL from each, n=8 mice per group) from the two-week blood draw was used for fast protein liquid chromatography (FPLC) analysis. Lipoproteins were separated by using 3 Superdex 200 10/30 columns connected in series (GE Healthcare). The plasma was centrifuged at 11,000 rpm for 10 min at room temperature to remove particulates (floating material was gently mixed into liquid before removing the supernatant for FPLC injection). 200 μL of the pooled plasma was injected on the system eluted with 10 mM tris-HCl buffer, pH 7.4, containing 1 mM EDTA and 150 mM NaCl; a flow rate of 0.5 ml/min and fraction size of 0.5 mL were used. Total cholesterol in the FPLC fractions was measured using the Amplex® red cholesterol assay kit (No. A12216, Life Technologies) according to the manufacturer's instructions. 20 μL of selected HDL fractions (as indicated in FIG. 6) were mixed with 4 μL of 6× native loading buffer (375 mM tris, pH 6.8, 0.06% bromophenol, 60% glycerol), out of which 20 μL was applied to non-denaturing gel electrophoresis and then immunoblotted for mouse apoA-I as described above."}, "[4]": {"conditions": "listed as c[wLwReQeR], 25 mg/kg/day"}}, "note": "“Also recorded” adds a separate entry of the source. Non-standard residues stand in square brackets, D forms with d. Residues, ends and D or L forms follow the SMILES beside them."}
{"compound": "CC(C)C[C@@H]1NC(=O)[C@@H](Cc2c[nH]c3ccccc23)NC(=O)[C@H](CCCNC(=N)N)NC(=O)[C@@H](CCC(=O)O)NC(=O)[C@H](CCC(N)=O)NC(=O)[C@@H](CCC(=O)O)NC(=O)[C@H](CCCNC(=N)N)NC(=O)[C@@H](Cc2c[nH]c3ccccc23)NC1=O", "note": "[SEQ ID NO:1, c[wLwReQeR]] (cyclo([dW]L[dW]R[dE]Q[dE]R))", "values": [{"measurement": "toxicity based on the cellular morphology and density", "setting": "[1]; J774 cells in the efflux assay", "result": "did not appear to be toxic"}, {"measurement": "promotion of cellular cholesterol efflux (in words)", "setting": "[1]; J774 cells, 2% apoB-depleted peptide-treated human plasma, 4 h, FIG. 2b", "result": "clear concentration dependency; also recorded: only marginally less effective than the α-helical apoA-I mimetic 4F"}, {"measurement": "body weight, difference between groups", "setting": "[2]", "result": "No differences"}, {"measurement": "food or water intake, difference between groups", "setting": "[2]", "result": "No differences"}, {"measurement": "liver weight, difference between groups", "setting": "[2]", "result": "No differences"}, {"measurement": "spleen weight, difference between groups", "setting": "[2]", "result": "No differences"}, {"measurement": "liver enzyme ALT, difference between groups", "setting": "[3]", "result": "No differences"}, {"measurement": "liver enzyme AST, difference between groups", "setting": "[3]", "result": "No differences"}, {"measurement": "HDL particle size (FPLC lipoprotein profile)", "setting": "LDLr-null mice; listed as 1, 25 mg/kg/day", "result": "remodeled in favor of the smaller HDL particle sizes"}, {"measurement": "VLDL and LDL levels (FPLC lipoprotein profile)", "setting": "LDLr-null mice; listed as 1, 25 mg/kg/day", "result": "reduced levels of VLDL and LDL"}, {"measurement": "HDL particle size (FPLC lipoprotein profile)", "setting": "LDLr-null mice; [4]", "result": "modest shift to smaller (later eluting) particles"}, {"measurement": "VLDL and LDL levels (FPLC lipoprotein profile)", "setting": "LDLr-null mice; [4]", "result": "decreases in the VLDL and LDL levels"}, {"measurement": "HDL levels (FPLC lipoprotein profile)", "setting": "LDLr-null mice; vs vehicle", "result": "comparable for both groups"}]}
